{"source": "patent EP0383856B1", "about": "“USE OF PEPTIDES FOR INHIBITING BLOOD VESSEL BLOCKAGE” (SOCIETE DE CONSEILS DE […] D'APPLICATIONS SCIENTIFIQUES …, priority 1988, dated 1989)", "key": {"[1]": {"test_system": "myointimal proliferation of the carotid artery", "assay": "Air-drying injury of the rat carotid artery, myointimal proliferation (maximal intimal/media ratio, morphometry)", "assay_type": "in vivo, Sprague-Dawley rats", "experimental": "Male Sprague-Dawley rats, weighing […], obtained from Charles River were kept under controlled lighting conditions and fed rat chow and water ad libitum. Under sodium pentobarbital anesthesia the intima of the right carotid artery was subjected to an air-drying injury described by Fishman et al, Lab Invest., 32, 339 (1975). This procedure causes intimal hyperplasia that largely consists of proliferating intimal smooth muscle cells. In this model approximately 4 cm of the vessel is isolated and drained of blood. Air (20 ml/min) is blown through a 30 gauge needle for 5 min whereafter blood flow is reestablished. The contralateral carotid artery was also exposed but not air-dried. The rats were sacrificed 15 days later.\nThe experiment consisted of a control group and ten treatment groups. The somatostatin analogs used were hepta- or octapeptides, namely BIM 23014 (Angiopeptin), BIM 23012, BIM 23027, BIM 23030 and BIM 23034. […] The animals were pretreated two days prior to the procedure and for a further five days following the endothelial injury. Two additional groups of animals were added in order to study whether Angiopeptin (20 µg/kg/day and 50 µg/kg/day) administered 30 min prior to the endothelial injury and for a further five days would protect against the myointimal proliferation.\nThe animals were sacrificed on day 15 following the injury by exsanguination. The vascular system was flushed with normal saline and perfusion-fixed at 80 mmHg with 10% formalin. The carotid arteries were subsequently fixed, embedded and sectioned for light microscopy and morphometric analysis. The maximal intimal/media ratio is the distance from the lumen to the internal elastic lamina and the distance from the internal elastic lamina to the external elastic lamina. The distances were determined in each vessel using a digitizing system attached to a light microscope. The determinations were performed on three different cross sections of the vessel and each section was measured three times. The mean was calculated for each vessel. Differences between the groups were evaluated using Student's unpaired t-test."}, "Myointimal Hyperplasia": {"test_system": "Myointimal Hyperplasia", "assay": "Myointimal hyperplasia in rabbits after balloon angioplasty of iliac artery and aorta (morphometry)", "assay_type": "in vivo, white New Zealand rabbits", "settings": "for percentage of inhibition of myointimal hyperplasia: 20 µg/kg/d; for % Intimal hyperplasia, Mean: group mean; for % Intimal hyperplasia: individual samples", "experimental": "Female and Male, white New Zealand rabbits (2.8-3.0 kg) were divided into two groups (A and B). Group A (vehicle control) received subcutaneous injections of physiological saline (0.2 ml) twice daily. […] The animals were treated the day before angioplasty, and until sacrifice about 3 weeks later. The angioplasty was done under general anesthesia with Ketamine and Xylazine. Each animal's left iliac artery and aorta were denuded with an angioplasty catheter (Fogarty). The angioplasty catheter was inserted into the left femoral artery and passed through the vessel to the thoracic aorta. The catheter was then reciprocated three times. The animals were all sacrificed from days 22-24 after angioplasty. The aorta and iliac arteries were fixed in situ via perfusion with formaldehyde under constant perfusion pressure.\nIntimal hyperplasia was determined on elastin-stained (Van Giesen) horizontally-cut sections. The sections were obtained from (i) the aorta at the level of the renal artery, (ii) the common iliac artery at the level of bifurcation, and (iii) the external iliac artery just above the inguinal ligament. The area of intimal hyperplasia and total vessel area were determined by morphometry. The percentage of intimal hyperplasia was expressed as follows: [formula] Single determinations were made on three segments of each aorta and the two iliac arteries of each animal. The percentage of intimal hyperplasia was determined as the mean of the two closest measurements of each vessel."}, "[2]": {"test_system": "smooth muscle cell proliferation", "assay": "Primate balloon catheter injury of aorta and femoral arteries, smooth muscle cell proliferation", "assay_type": "in vivo, cynomologous macaques", "settings": "aorta and left and right femoral arteries; i.m. slow release system, total 50 µg/kg/day; one treated animal versus one control; five weeks", "experimental": "In order to obtain a primate coronary angioplasty model which would be suited for evaluation of Angiopeptin, a feasibility study was performed on primates which were made available from the colony at Bowman-Gray Medical School, Winston-Salem, North Carolina. These animals were culled from the colony due to failure of the primates to satisfactorily elevate blood lipids when administered a high cholesterol diet. Young male cynomologous macaques weighing approximately 3.5 kg were used after an equilibration period of more than a week in a primate facility.\nThe animals were sedated with Ketamine and maintained with 1% halothane in oxygen. The aorta and femoral arteries were injured by a balloon catheter (USCI, Band). After five weeks the primates were anesthetized and sacrificed. The aorta and femoral arteries were removed and fixed in formaldehyde for morphometric analysis. […]\nThe maximal intimal/media ratio (distance from lumen to internal elastic lamina/distance from internal elastic lamina to external elastic lamina) was determined in each vessel using a digitizing system attached to a light microscope. The determinations were done on three different cross sections of the vessel and each section was measured three times and each three measurements were averaged."}, "[3]": {"test_system": "myointimal cell proliferation in the aortas of rabbits", "assay": "Rabbit aorta 72 hours after balloon angioplasty: wet weight, protein, DNA/protein, 3-H thymidine incorporation", "assay_type": "in vivo, New Zealand White Rabbits", "settings": "for Levels of Proteins (total protein content of the injured aortas): Fig. 2; for DNA/Protein Ratio: Fig. 3; for Thymidine (3-H) Incorporation (rates of cell proliferation): Fig. 4", "experimental": "New Zealand White Rabbits were anesthetised with Rompun (Xylazine) and Ketalar (Ketamine) and a cannula (3F Fogarty) was inserted from the femoral artery. The balloon was inflated at a constant pressure and the aorta was deendothelialised by angioplasty. The process was repeated three times and the wound site was closed. The animals were sacrificed 72 hours after balloon angioplasty and after removing the adventitia the aorta was cut into fine rings. These rings were incubated in the presence of 3-H thymidine and the radioactivity was determined after processing the tissue. Simultaneous measurements of DNA and protein contents were also made in these tissues.\nEight injections of Angiopeptin were made: on the morning and evening of the day prior to ballooning; two on the day of the procedure; and two on each of the following two days. The total daily dose was 2, 20, or 200 µg/Kg body weight."}, "[4]": {"test_system": "smooth muscle pig left coronary artery explants", "assay": "H3-thymidine incorporation in denuded pig left coronary artery explants", "assay_type": "cell-based, Domestic pig", "settings": "24 hr, individual segments", "experimental": "Domestic pig hearts were obtained from a slaughter house immediately after the animals were sacrificed. The hearts were harvested and placed in ice-cold Kreb's Ringer buffer and transported to the laboratory. The left coronary artery (LAD) was dissected in aseptic conditions and divided into pieces of 5 mm. The segments were denuded from the endothelium by gently introducing a metallic rod in the lumen. The tissues were placed in sterile multiwell culture dishes in 1 ml of culture media (DMEM with antibiotics) and without fetal calf serum. H³-thymidine (2.5 uCi/ml) and increasing concentrations of angiopeptin (10-1000 ng/ml) were added to the medium. Segments which were incubated with 3 different concentrations of forskolin were used as a positive control in each experiment. The incubation period was 24 hr at 37°C and 5% CO₂. The tissues were washed with phosphate saline buffer and placed in a solution of cold thymidine for one hour and then frozen in liquid nitrogen, ground and lysed with a hypotonic solution. The lysed tissues were further incubated with proteinase K overnight at 50°C. The radioactivity, content of protein and DNA were measured."}, "growth hormone release": {"test_system": "growth hormone release", "settings": "in vivo, from Heiman et al., Coy et al., Tolis et al., cited from earlier work"}, "[5]": {"settings": "common iliac artery, female rabbits"}, "[6]": {"settings": "common iliac artery, male rabbits"}, "[7]": {"settings": "external iliac artery, female rabbits"}, "[8]": {"settings": "external iliac artery, male rabbits"}}, "note": "Where “and” joins values, the source holds several entries; their conditions need not be identical. Identical values can stand only once. Like-named read-outs stand apart in the source and are kept apart here.", "data": [{"smiles": "CC(C)[C@@H]1NC(=O)[C@H](CCCCN)NC(=O)[C@@H](Cc2c[nH]c3ccccc23)NC(=O)[C@H](Cc2ccc(O)cc2)NC(=O)[C@@H](NC(=O)[C@H](N)Cc2ccc3ccccc3c2)CSSC[C@@H](C(=O)N[C@H](C(N)=O)[C@@H](C)O)NC1=O", "note": "[Angiopeptin, D-Nal-Cys-Tyr-D-Trp-Lys-Val-Cys-Thr-NH₂]", "values": [{"measurement": "myointimal proliferation of the carotid artery following endothelial injury by air drying", "setting": "[1]; 20 µg/kg/day s.c. in two divided doses, from two days prior to injury and five days after, sacrifice day 15", "result": "effective"}, {"measurement": "myointimal proliferation of the carotid artery following endothelial injury by air drying", "setting": "[1]; 50 µg/kg/day s.c. in two divided doses, from two days prior to injury and five days after, sacrifice day 15", "result": "effective"}, {"measurement": "myointimal proliferation", "setting": "[1]; 50 µg/kg/day, started 30 min prior to the arterial injury and for a further five days", "result": "significantly (p<0.01) inhibited"}, {"measurement": "myointimal proliferation of the carotid artery following endothelial injury by air drying", "setting": "[1]; overall statement for the doses used (20 and 50 µg/kg/day s.c.), started two days prior to injury", "result": "inhibited significantly (P<0.01)"}, {"measurement": "percentage of inhibition of myointimal hyperplasia", "setting": "Myointimal Hyperplasia; aorta, female rabbits", "result": "~43", "unit": "%"}, {"measurement": "% Intimal hyperplasia, Mean", "setting": "Myointimal Hyperplasia; aorta, female rabbits", "result": 12.5, "unit": "%"}, {"measurement": "% Intimal hyperplasia", "setting": "Myointimal Hyperplasia; aorta, female rabbits", "result": "13.0% and 10.7% and 12.8% and 19.5% and 6.4%"}, {"measurement": "percentage of inhibition of myointimal hyperplasia", "setting": "Myointimal Hyperplasia; aorta, male rabbits", "result": "~32", "unit": "%"}, {"measurement": "% Intimal hyperplasia, Mean", "setting": "Myointimal Hyperplasia; aorta, male rabbits", "result": 14.8, "unit": "%"}, {"measurement": "% Intimal hyperplasia", "setting": "Myointimal Hyperplasia; aorta, male rabbits", "result": "15.9% and 17.0% and 12.4% and 13.3% and 13.8% and 15.7% (2×)"}, {"measurement": "percentage of inhibition of myointimal hyperplasia", "setting": "Myointimal Hyperplasia; [5]", "result": "~33", "unit": "%"}, {"measurement": "% Intimal hyperplasia, Mean", "setting": "Myointimal Hyperplasia; [5]", "result": 13.1, "unit": "%"}, {"measurement": "% Intimal hyperplasia", "setting": "Myointimal Hyperplasia; [5]", "result": "6.5% and 9.3% and 9.5% and 19.7% and 20.5% and 15.3% and 16.6% and 7.7%"}, {"measurement": "percentage of inhibition of myointimal hyperplasia", "setting": "Myointimal Hyperplasia; [6]", "result": "~39", "unit": "%"}, {"measurement": "% Intimal hyperplasia, Mean", "setting": "Myointimal Hyperplasia; [6]", "result": 14.1, "unit": "%"}, {"measurement": "% Intimal hyperplasia", "setting": "Myointimal Hyperplasia; [6]", "result": "14.9% and 16.0% and 6.4% and 17.4% and 13.9% and 15.8% and 14.0%"}, {"measurement": "percentage of inhibition of myointimal hyperplasia", "setting": "Myointimal Hyperplasia; [7]", "result": "about 41%"}, {"measurement": "% Intimal hyperplasia, Mean", "setting": "Myointimal Hyperplasia; [7]", "result": 20.7, "unit": "%"}, {"measurement": "% Intimal hyperplasia", "setting": "Myointimal Hyperplasia; [7]", "result": "17.8% and 26.4% and 15.2% and 21.3% and 33.6% and 24.1% and 20.6% and 6.6%"}, {"measurement": "percentage of inhibition of myointimal hyperplasia", "setting": "Myointimal Hyperplasia; [8]", "result": "~20", "unit": "%"}, {"measurement": "% Intimal hyperplasia, Mean", "setting": "Myointimal Hyperplasia; [8]", "result": 24.4, "unit": "%"}, {"measurement": "% Intimal hyperplasia", "setting": "Myointimal Hyperplasia; [8]", "result": "30.5% and 19.2% and 25.7% and 26.5% and 22.3% and 37.9% and 22.2%"}, {"measurement": "inhibition of smooth muscle cell proliferation", "setting": "[2]", "result": "nearly complete inhibition"}, {"measurement": "Levels of Proteins (total protein content of the injured aortas)", "setting": "[3]; 2 µg/kg body wt.", "result": "lowered the total protein content"}, {"measurement": "DNA/Protein Ratio", "setting": "[3]; 20 µg/kg body weight", "result": "significantly lowered"}, {"measurement": "Thymidine (3-H) Incorporation (rates of cell proliferation)", "setting": "[3]; 20 µg/kg body wt.", "result": "significantly lower"}, {"measurement": "DNA/Protein Ratio", "setting": "[3]; 200 µg/kg body wt.", "result": "reflected the inhibitory influence"}, {"measurement": "Thymidine (3-H) Incorporation (rates of cell proliferation)", "setting": "[3]; 200 µg/kg", "result": "still inhibited the myointimal proliferation"}, {"measurement": "Wet Weight of aortas", "setting": "[3]; 2, 20 and 200 µg/kg body wt. daily, 72 hours after balloon angioplasty, Fig. 1", "result": "does not seem to influence"}, {"measurement": "Levels of Proteins (total protein content of the injured aortas)", "setting": "[3]; higher doses (20 and 200 µg/kg body wt.)", "result": "did not affect the levels of total proteins"}, {"measurement": "CPM", "setting": "[4]; Angiopeptin 10 ng/ml", "result": "35113.84 CPM and 46392.32 CPM and 27312.80 CPM and 55980.00 CPM"}, {"measurement": "CPM", "setting": "[4]; Angiopeptin 20 ng/ml", "result": "26279.81 CPM and 39027.27 CPM and 39706.01 CPM and 21562.08 CPM"}, {"measurement": "CPM", "setting": "[4]; Angiopeptin 50 ng/ml", "result": "24269.18 CPM and 40768.09 CPM and 18983.78 CPM and 18942.16 CPM"}, {"measurement": "CPM", "setting": "[4]; Angiopeptin 100 ng/ml", "result": "20794.85 CPM and 32402.31 CPM and 22033.48 CPM and 26227.64 CPM"}, {"measurement": "CPM", "setting": "[4]; Angiopeptin […] (so in the source)", "result": "18325.51 CPM and 27260.98 CPM and 30226.99 CPM and 32344.58 CPM"}, {"measurement": "inhibition of growth hormone release", "setting": "growth hormone release", "result": "less active"}, {"measurement": "inhibition of growth hormone release", "setting": "growth hormone release; listed as BIM 23014", "result": "potent inhibitors of growth hormone release"}]}]}
